Reference: patent US12281149B2, “Modulators of G-protein coupled receptors” (priority 2021, dated 2025)
*1 amine or outer side, *2 acyl side, *3 side chain or, on linkers, in order; H or OH if unused. Where a SMILES comes first, the peptide text is derived from it. Side-chain parts run from the residue outwards. [ ]: non-standard residue; d: D form. The star is where a group is joined. Isobutyryl(2-(3-CN-5-F-Ph)) = CC(C)(C(=O)*)c1cc(F)cc(C#N)c1; C20 diacid = O=C(O)CCCCCCCCCCCCCCCCCCC(=O)*; αMePhe(2-F) = C[C@](N)(Cc1ccccc1F)C(=O)O; γGlu = O=C(O)[C@H](CCC(=O)[*:2])N[*:1]; X70 = CC[C@H](CN[*:1])C(=O)[*:2]; X61 = CC(C)(C(=O)*)c1ccccc1F; AEEA = NCCOCCOCC(=O)O; Aib = CC(C)(N)C(=O)O; CO = O=C([*:1])[*:2]; Piv = CC(C)(C)C(=O)*; X12 = Fc1cccc(N*)c1; GABA = NCCCC(=O)O; βAla = NCCC(=O)O

Tests used:
Format in all cases: cell-based
[1] = target: T1, GLP-1 receptor (Homo sapiens, UniProt P43220); test: HitHunter cAMP assay, GLP-1 receptor; settings: for EC50: CHO cells stably expressing human GLP-1 receptor, cAMP accumulation, 30 min, read-out: EC50 GLP-1R; for Emax: CHO cells, cAMP, normalized to maximum signal from GLP-1 (high) and DMSO (low), read-out: Emax GLP-1R
[2] = target: T2, GIP receptor (Homo sapiens, UniProt P48546); test: HitHunter cAMP assay, GIP receptor; settings: for EC50: CHO cells stably expressing GIP receptor, cAMP accumulation, 30 min, read-out: EC50 GIP-1R; for Emax: CHO cells, cAMP, normalized to maximum signal from GIP (high) and DMSO (low), read-out: Emax GIP-1R
T2 sequence (P48546 22-466): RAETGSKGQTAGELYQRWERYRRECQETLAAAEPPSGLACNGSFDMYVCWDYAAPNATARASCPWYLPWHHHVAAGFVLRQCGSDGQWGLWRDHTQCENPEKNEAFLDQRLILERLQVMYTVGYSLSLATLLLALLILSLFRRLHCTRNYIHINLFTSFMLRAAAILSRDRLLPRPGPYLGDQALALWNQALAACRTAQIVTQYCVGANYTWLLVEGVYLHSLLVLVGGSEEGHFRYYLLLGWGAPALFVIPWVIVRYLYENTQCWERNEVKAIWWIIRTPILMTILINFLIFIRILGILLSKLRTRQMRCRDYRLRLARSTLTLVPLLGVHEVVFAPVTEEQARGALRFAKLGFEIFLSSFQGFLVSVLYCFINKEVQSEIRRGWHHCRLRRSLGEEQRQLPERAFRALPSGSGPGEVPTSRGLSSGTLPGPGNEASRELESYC

[3] = target: T2, GIP receptor; test: PathHunter β-arrestin assay, GIP receptor; design: host or cells: PathHunter CHO-K1 GIPR β-Arrestin Cell Line; settings: β-arrestin-2 recruitment, PathHunter CHO-K1 GIPR β-Arrestin Cell Line, 90 min at 37° C.; normalized to GIP; read-out: GIPR β Arrestin EC50
[4] = target: T1, GLP-1 receptor; test: PathHunter β-arrestin assay, GLP-1 receptor; design: host or cells: PathHunter CHO-K1 GLP1R β-Arrestin Cell Line; settings: β-arrestin-2 recruitment, PathHunter CHO-K1 GLP1R β-Arrestin Cell Line, 90 min at 37° C.; normalized to GLP-1; read-out: GLP-1R β Arrestin EC50

T1 sequence (P43220 24-463): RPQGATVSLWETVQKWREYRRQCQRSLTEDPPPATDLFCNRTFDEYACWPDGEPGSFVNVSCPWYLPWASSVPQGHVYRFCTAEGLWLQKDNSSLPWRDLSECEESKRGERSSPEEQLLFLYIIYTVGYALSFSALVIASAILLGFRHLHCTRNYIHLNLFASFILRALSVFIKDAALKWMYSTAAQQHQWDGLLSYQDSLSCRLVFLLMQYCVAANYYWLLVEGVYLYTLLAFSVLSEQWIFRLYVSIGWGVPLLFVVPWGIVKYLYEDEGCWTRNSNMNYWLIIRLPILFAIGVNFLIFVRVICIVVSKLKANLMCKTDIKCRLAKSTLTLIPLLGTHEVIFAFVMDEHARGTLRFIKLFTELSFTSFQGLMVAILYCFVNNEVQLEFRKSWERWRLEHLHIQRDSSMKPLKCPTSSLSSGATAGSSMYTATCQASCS

CC[C@H](C)[C@H](NC(=O)[C@H](CC(C)C)NC(=O)[C@H](Cc1c[nH]c2ccccc12)NC(=O)[C@H](CCC(N)=O)NC(=O)[C@@H](NC(=O)[C@H](Cc1ccccc1)NC(=O)[C@H](C)NC(=O)[C@H](CCCCNC(=O)COCCOCCNC(=O)COCCOCCNC(=O)CC[C@H](NC(=O)CCCCCCCCCCCCCCCCCCC(=O)O)C(=O)O)NC(=O)[C@H](CCC(N)=O)NC(=O)[C@H](C)NC(=O)[C@@H](NC(=O)[C@H](CCCCN)NC(=O)[C@H](CC(=O)O)NC(=O)[C@H](CC(C)C)NC(=O)C(C)(C)NC(=O)[C@@H](NC(=O)[C@H](CO)NC(=O)[C@H](Cc1ccc(O)cc1)NC(=O)[C@H](CC(=O)O)NC(=O)[C@H](CO)NC(=O)[C@@H](NC(=O)[C@H](Cc1ccccc1)NC(=O)[C@@H](NC(=O)CNC(=O)[C@H](CCC(=O)O)NC(=O)CCNC(=O)C(C)(C)c1ccccc1F)[C@@H](C)O)[C@@H](C)O)[C@@H](C)CC)[C@@H](C)CC)C(C)C)C(=O)N[C@@H](C)C(=O)NCC(=O)NCC(=O)N1CCC[C@H]1C(=O)N[C@@H](CO)C(=O)N[C@@H](CO)C(=O)NCC(=O)N[C@@H](C)C(=O)N1CCC[C@H]1C(=O)N1CCC[C@H]1C(=O)N1CCC[C@H]1C(=O)N[C@@H](CO)C(N)=O [Compound 198] ({X61-βAla}-EGTFTSDYSI[Aib]LDKIAQK([AEEA-AEEA-γGlu-C20 diacid])AFVQWLIAGGPSSGAPPPS-NH2)
EC50 [1]: 0.1 to 1 nM
Emax [1]: 99%
EC50 [2]: 1 to 10 nM
Emax [2]: 102%
EC50 [3]: < 1000 nM
EC50 [4]: > 1000 nM

CC[C@H](C)[C@H](NC(=O)[C@H](CO)NC(=O)[C@H](Cc1ccc(O)cc1)NC(=O)[C@H](CC(=O)O)NC(=O)[C@H](CO)NC(=O)[C@@H](NC(=O)[C@H](Cc1ccccc1)NC(=O)[C@@H](NC(=O)CNC(=O)[C@H](CCC(=O)O)NC(=O)CCNC(=O)[C@]1(c2ccccc2)CNC(=O)C1)[C@@H](C)O)[C@@H](C)O)C(=O)N[C@@H](Cc1ccc(O)cc1)C(=O)N[C@@H](CC(C)C)C(=O)N[C@@H](CC(=O)O)C(=O)N[C@@H](CCCCN)C(=O)N[C@@H](CCC(N)=O)C(=O)N[C@@H](C)C(=O)N[C@@H](C)C(=O)N[C@@H](CCCCNC(=O)COCCOCCNC(=O)COCCOCCNC(=O)CC[C@H](NC(=O)CCCCCCCCCCCCCCCCCCC(=O)O)C(=O)O)C(=O)N[C@@H](CCC(=O)O)C(=O)N[C@@H](Cc1ccccc1)C(=O)N[C@H](C(=O)N[C@@H](CC(N)=O)C(=O)N[C@@H](Cc1c[nH]c2ccccc12)C(=O)N[C@@H](CC(C)C)C(=O)N[C@@H](CC(C)C)C(=O)N[C@@H](C)C(=O)NCC(=O)NCC(=O)N1CCC[C@H]1C(=O)N[C@@H](CO)C(=O)N[C@@H](CO)C(=O)NCC(=O)N[C@@H](C)C(=O)N1CCC[C@H]1C(=O)N1CCC[C@H]1C(=O)N1CCC[C@H]1C(=O)N[C@@H](CO)C(N)=O)C(C)C (single isomer, unassigned) [Compound 128]
EC50 [1]: 1 to 10 nM
Emax [1]: 99%
EC50 [2]: 10 to 100 nM
Emax [2]: 101%
EC50 [3]: > 1000 nM
EC50 [4]: > 1000 nM

CC[C@H](CNC(=O)C(C)(C)c1cc(F)cc(C#N)c1)C(=O)N[C@@H](CCC(=O)O)C(=O)NCC(=O)N[C@H](C(=O)N[C@@H](Cc1ccccc1)C(=O)N[C@H](C(=O)N[C@@H](CO)C(=O)N[C@@H](CC(=O)O)C(=O)N[C@@H](Cc1ccc(O)cc1)C(=O)N[C@@H](CO)C(=O)N[C@H](C(=O)NC(C)(C)C(=O)N[C@@H](CC(C)C)C(=O)N[C@@H](CC(=O)O)C(=O)N[C@@H](CCCCN)C(=O)N[C@H](C(=O)N[C@@H](C)C(=O)N[C@@H](CCC(N)=O)C(=O)N[C@@H](CCCCNC(=O)COCCOCCNC(=O)COCCOCCNC(=O)CC[C@H](NC(=O)CCCCCCCCCCCCCCCCCCC(=O)O)C(=O)O)C(=O)N[C@@H](C)C(=O)N[C@@H](Cc1ccccc1)C(=O)N[C@H](C(=O)N[C@@H](CCC(N)=O)C(=O)N[C@@H](Cc1c[nH]c2ccccc12)C(=O)N[C@@H](CC(C)C)C(=O)N[C@H](C(=O)N[C@@H](C)C(=O)NCC(=O)NCC(=O)N1CCC[C@H]1C(=O)N[C@@H](CO)C(=O)N[C@@H](CO)C(=O)NCC(=O)N[C@@H](C)C(=O)N1CCC[C@H]1C(=O)N1CCC[C@H]1C(=O)N1CCC[C@H]1C(=O)N[C@@H](CO)C(N)=O)[C@@H](C)CC)C(C)C)[C@@H](C)CC)[C@@H](C)CC)[C@@H](C)O)[C@@H](C)O [Compound 148] ({Isobutyryl(2-(3-CN-5-F-Ph))}-[X70]EGTFTSDYSI[Aib]LDKIAQK([AEEA-AEEA-γGlu-C20 diacid])AFVQWLIAGGPSSGAPPPS-NH2)
EC50 [1]: 1 to 10 nM
Emax [1]: 99%
EC50 [2]: 10 to 100 nM
Emax [2]: 101%
EC50 [3]: > 1000 nM
EC50 [4]: > 1000 nM

CC[C@H](C)[C@H](NC(=O)[C@H](CC(C)C)NC(=O)[C@H](Cc1c[nH]c2ccccc12)NC(=O)[C@H](CCC(N)=O)NC(=O)[C@@H](NC(=O)[C@H](Cc1ccccc1)NC(=O)[C@H](C)NC(=O)[C@H](CCCCNC(=O)COCCOCCNC(=O)COCCOCCNC(=O)CC[C@H](NC(=O)CCCCCCCCCCCCCCCCCCC(=O)O)C(=O)O)NC(=O)[C@H](CCC(N)=O)NC(=O)[C@H](C)NC(=O)[C@@H](NC(=O)[C@H](CCCCN)NC(=O)[C@H](CC(=O)O)NC(=O)[C@H](CC(C)C)NC(=O)C(C)(C)NC(=O)[C@@H](NC(=O)[C@H](CO)NC(=O)[C@H](Cc1ccc(O)cc1)NC(=O)[C@H](CC(=O)O)NC(=O)[C@H](CO)NC(=O)[C@@H](NC(=O)[C@H](Cc1ccccc1)NC(=O)[C@@H](NC(=O)CNC(=O)[C@H](CCC(=O)O)NC(=O)CCNC(=O)C(C)(C)C)[C@@H](C)O)[C@@H](C)O)[C@@H](C)CC)[C@@H](C)CC)C(C)C)C(=O)N[C@@H](C)C(=O)NCC(=O)NCC(=O)N1CCC[C@H]1C(=O)N[C@@H](CO)C(=O)N[C@@H](CO)C(=O)NCC(=O)N[C@@H](C)C(=O)N1CCC[C@H]1C(=O)N1CCC[C@H]1C(=O)N1CCC[C@H]1C(=O)N[C@@H](CO)C(N)=O [Compound 197] ({Piv-βAla}-EGTFTSDYSI[Aib]LDKIAQK([AEEA-AEEA-γGlu-C20 diacid])AFVQWLIAGGPSSGAPPPS-NH2)
EC50 [1]: 0.1 to 1 nM
Emax [1]: 96%
EC50 [2]: 10 to 100 nM
Emax [2]: 97%
EC50 [3]: > 1000 nM
EC50 [4]: > 1000 nM

CC[C@H](C)[C@H](NC(=O)[C@H](CC(C)C)NC(=O)[C@H](Cc1c[nH]c2ccccc12)NC(=O)[C@H](CCC(N)=O)NC(=O)[C@@H](NC(=O)[C@H](Cc1ccccc1)NC(=O)[C@H](C)NC(=O)[C@H](CCCCNC(=O)COCCOCCNC(=O)COCCOCCNC(=O)CC[C@H](NC(=O)CCCCCCCCCCCCCCCCCCC(=O)O)C(=O)O)NC(=O)[C@H](CCC(N)=O)NC(=O)[C@H](C)NC(=O)[C@@H](NC(=O)[C@H](CCCCN)NC(=O)[C@H](CC(=O)O)NC(=O)[C@H](CC(C)C)NC(=O)C(C)(C)NC(=O)[C@@H](NC(=O)[C@H](CO)NC(=O)[C@H](Cc1ccc(O)cc1)NC(=O)[C@H](CC(=O)O)NC(=O)[C@H](CO)NC(=O)[C@@H](NC(=O)[C@](C)(Cc1ccccc1F)NC(=O)[C@@H](NC(=O)CNC(=O)[C@H](CCC(=O)O)NC(=O)CCCNC(=O)Nc1cccc(F)c1)[C@@H](C)O)[C@@H](C)O)[C@@H](C)CC)[C@@H](C)CC)C(C)C)C(=O)N[C@@H](C)C(=O)NCC(=O)NCC(=O)N1CCC[C@H]1C(=O)N[C@@H](CO)C(=O)N[C@@H](CO)C(=O)NCC(=O)N[C@@H](C)C(=O)N1CCC[C@H]1C(=O)N1CCC[C@H]1C(=O)N1CCC[C@H]1C(=O)N[C@@H](CO)C(N)=O [Compound 282] ({X12-CO-GABA}-EGT[αMePhe(2-F)]TSDYSI[Aib]LDKIAQK([AEEA-AEEA-γGlu-C20 diacid])AFVQWLIAGGPSSGAPPPS-NH2)
EC50 [1]: 0.1 to 1 nM
Emax [1]: 92%
EC50 [2]: 10 to 100 nM
Emax [2]: 90%
EC50 [3]: > 1000 nM
EC50 [4]: > 1000 nM
